Reference: the supplement of paper PMC8882468

Assays:
Experiment in all cases: CTG-3D luminescence at 96 h relative to day-0 seeding control (ratio to day 0); higher = more growth / less cytotoxicity; PDxO 3D drug screen, 96 h, CTG-3D normalised to day-0 seeding control.
HCI-017.E2 = system: HCI-017.E2 (organoid from an ER-positive breast cancer xenograft)
HCI-023 = system: HCI-023 (organoid from a triple-negative breast cancer xenograft)
HCI-027 = system: HCI-027 (organoid from a triple-negative breast cancer xenograft)
HCI-008 = system: HCI-008 (organoid from a HER2-enriched breast cancer xenograft)
MDA-MB-231 = system: MDA-MB-231
HCI-010 = system: HCI-010 (organoid from a breast cancer xenograft)
HCI-015 = system: HCI-015 (organoid from a triple-negative breast cancer xenograft)

CC(=O)O[C@H]1C(=O)[C@@]2(C)[C@H]([C@H](OC(=O)c3ccccc3)[C@]3(O)C[C@H](OC(=O)[C@H](O)[C@@H](NC(=O)c4ccccc4)c4ccccc4)C(C)=C1C3(C)C)[C@]1(OC(C)=O)CO[C@@H]1C[C@@H]2O [paclitaxel]
CTG-3D luminescence at 96 h
Conditions	12.5 pM	0.00025 µM	0.005 µM	0.1 µM	1 µM	10 µM	100 µM	625 fM
HCI-017.E2	1.06	1.2	1.2	1.2	1.17	1.23	1.3	1.35
MDA-MB-231	3.73	3.45	2.71	2.03	2	2.42	1.09	3.85

CTG-3D luminescence at 96 h
Conditions	12.5 pM	0.00025 µM	0.005 µM	0.1 µM	1 µM	10 µM	100 µM	625 fM
HCI-008, days in culture: 228	1.67	1.93	0.719	0.575	0.627	0.764	0.554	1.55
HCI-008, days in culture: 244	1.16	1.96	1.22	0.925	0.832	0.852	0.58	2.02
HCI-010, days in culture: 52	2.13	2.39	2.24	1.16	1.15	1.12	0.408	2.28
HCI-010, days in culture: 65	1.61	1.57	1.36	1.05	0.898	0.958	0.43	1.64
HCI-010, days in culture: 103	3.62	3.37	3.05	1.41	1.24	1.28	0.858	3.06
HCI-015, days in culture: 172	1.71	0.614	1.22	0.629	0.689	0.702	0.612	1.2
HCI-015, days in culture: 191	1.87	1.47	1.01	0.626	0.566	0.463	0.334	1.82
HCI-015, days in culture: 218	1.85	1.53	0.801	0.428	0.505	0.46	0.39	1.86
HCI-017.E2, days in culture: 85	2.33	1.88	1.23	0.935	1.09	1.04	0.81	1.92
HCI-023, days in culture: 111	1.34	1.27	0.476	0.484	0.433	0.474	0.492	1.58
HCI-023, days in culture: 128	1.36	1.38	0.502	0.609	0.483	0.786	0.605	1.41
HCI-027, days in culture: 176	2.38	1.31	0.504	0.265	0.283	0.392	0.34	2.59
HCI-027, days in culture: 194	1.95	1.6	0.751	0.185	0.242	0.511	0.427	1.65
HCI-027, days in culture: 201	2.25	2.16	0.808	0.215	0.284	0.563	0.342	2.03

C/C=C1\NC(=O)[C@H]2CSSCC/C=C/[C@H](CC(=O)N[C@H](C(C)C)C(=O)N2)OC(=O)[C@H](C(C)C)NC1=O [romidepsin]
CTG-3D luminescence at 96 h
Conditions	12.5 pM	0.00025 µM	0.005 µM	0.1 µM	1 µM	10 µM	100 µM	625 fM
HCI-017.E2	1.34	1.36	0.657	0.298	0.151	0.033	-0.0104	1.17
MDA-MB-231	3.87	3.12	0.22	0.0791	0.0421	-0.000441	-0.0309	4.02

CTG-3D luminescence at 96 h
Conditions	12.5 pM	0.00025 µM	0.005 µM	0.1 µM	1 µM	10 µM	100 µM	625 fM
HCI-008, days in culture: 228	1.78	1.7887	0.632	0.0457	0.0185	0.0061	-0.00528	2.13
HCI-008, days in culture: 244	1.41	2.08	0.607	0.0448	0.0206	0.00309	-0.0086	2.35
HCI-010, days in culture: 52	1.97	2.29	1.13	0.189	0.128	0.0169	-0.00333	1.81
HCI-010, days in culture: 65	1.32	1.34	0.941	0.326	0.276	0.0354	-0.00525	1.52
HCI-010, days in culture: 103	2.94	3.14	1.69	0.316	0.226	0.0082	-0.00621	2.77
HCI-015, days in culture: 172	1.96	1.32	1.05	0.221	0.425	-0.0523	-0.0841	2.7
HCI-015, days in culture: 191	2.51	1.79	0.707	0.312	0.256	0.0321	0.00192	2.21
HCI-015, days in culture: 218	2.09	1.5	0.78	-0.0662	-0.0737	-0.275	-0.342	2.07
HCI-017.E2, days in culture: 85	2.46	2.08	1.87	0.329	0.2	0.0715	-0.00898	2.18
HCI-023, days in culture: 111	1.65	1.37	0.46	0.0304	0.0241	-0.00341	-0.0106	1.9
HCI-023, days in culture: 128	1.66	1.55	0.343	0.104	0.0518	0.00597	-0.00382	1.556
HCI-027, days in culture: 176	2.43	1.27	0.05	0.0166	0.376	-0.165	-0.237	2.12
HCI-027, days in culture: 194	2.63	1.95	0.739	0.437	0.349	-0.0181	-0.0853	2.17
HCI-027, days in culture: 201	3.22	2.72	1.35	0.611	0.234	0.136	-0.0194	3.25
